Data set [1] concerns the target T1, Indoleamine 2,3-dioxygenase 1 (Homo sapiens, UniProt P14902). Description: Inhibition of recombinant human IDO1 expressed in Escherichia coli EC538 using L-tryptophan as substrate after 1 hr.
Target sequence in this assay (P14902 whole entry): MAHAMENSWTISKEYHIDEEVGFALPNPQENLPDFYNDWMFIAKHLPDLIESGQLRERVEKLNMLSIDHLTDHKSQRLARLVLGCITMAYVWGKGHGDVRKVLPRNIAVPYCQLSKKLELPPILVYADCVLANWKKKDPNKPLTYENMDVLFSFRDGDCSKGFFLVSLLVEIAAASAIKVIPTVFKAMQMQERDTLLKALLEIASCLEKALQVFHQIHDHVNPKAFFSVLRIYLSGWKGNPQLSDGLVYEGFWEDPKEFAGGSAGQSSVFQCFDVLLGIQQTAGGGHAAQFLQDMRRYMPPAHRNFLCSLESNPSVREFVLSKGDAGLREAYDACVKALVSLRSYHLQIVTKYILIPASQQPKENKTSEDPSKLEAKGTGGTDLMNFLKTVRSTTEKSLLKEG
Data set [2] addresses T1, Indoleamine 2,3-dioxygenase 1. Briefly: Inhibition of recombinant human IDO1 expressed in Escherichia coli EC538 using L-tryptophan as substrate at 0.1 mM after 1 hr relative to control.
Target sequence in this assay (P14902 whole entry, looked up): as the sequence (P14902 whole entry) above
Data set [3] can be described thus: Cytotoxicity against mouse LLTC cells at IC50 by MTT assay. The class given is cell-based.
The target in data set [4] is Indoleamine 2,3-dioxygenase 1 (Mus musculus, UniProt P28776). Briefly: Inhibition of mouse IDO1 expressed in mouse LLTC cells using L-tryptophan as substrate after 24 hrs. In kind it is cell-based.
Chain of Indoleamine 2,3-dioxygenase 1 (Mus musculus, UniProt P28776) (P28776 whole entry): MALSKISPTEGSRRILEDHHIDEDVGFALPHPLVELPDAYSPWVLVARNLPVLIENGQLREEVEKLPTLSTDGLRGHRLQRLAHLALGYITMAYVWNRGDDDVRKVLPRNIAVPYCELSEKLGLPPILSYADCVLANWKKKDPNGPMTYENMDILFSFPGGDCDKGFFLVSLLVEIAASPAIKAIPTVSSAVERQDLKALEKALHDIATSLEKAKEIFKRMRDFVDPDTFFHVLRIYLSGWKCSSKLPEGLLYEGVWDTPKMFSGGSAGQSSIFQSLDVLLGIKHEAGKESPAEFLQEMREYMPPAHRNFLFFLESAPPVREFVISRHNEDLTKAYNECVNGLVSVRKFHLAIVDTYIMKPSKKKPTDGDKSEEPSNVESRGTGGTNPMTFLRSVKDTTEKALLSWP
The target in data set [5] is T1, Indoleamine 2,3-dioxygenase 1. Briefly: Inhibition of human IDO1 expressed in mouse LLTC cells using L-tryptophan as substrate after 24 hrs. In kind it is cell-based.
Target sequence in this assay (P14902 whole entry): as the sequence (P14902 whole entry) above
The target is the same in data set [6]. Description: Ratio of 2-hydrazinobenzothiazole IC50 to compound IC50 for recombinant human IDO1.
Target sequence in this assay (P14902 whole entry, looked up): as the sequence (P14902 whole entry) above

In the case of `c1ccc2sc(SSc3nc4ccccc4s3)nc2c1` [BENZOTHIAZYL DISULFIDE], the IC50 in data set [1] is above 500 µM.

Turning to `NNc1nc2cc(Cl)ccc2s1`, in data set [2], the inhibition came out at 86%. Also, the IC50 in data set [1] is 1.5 µM.

Take `Sc1nc2ccccc2s1` [2-MERCAPTOBENZOTHIAZOLE]: the half-inhibitory concentration (IC50) in data set [1] worked out at 126 µM.

Turning to `CC(C)=NNc1nc2ccccc2s1`, the inhibition in data set [2] was determined as 30%.

`c1ccc2scnc2c1` [BENZO[D]THIAZOLE]: the IC50 in data set [1] was 652 µM.

With `NNc1nc2ccccc2s1`, the Activity entry in data set [3] is recorded as “Non-toxic”. Also, the IC50 in data set [4] was found to be 50.5 µM; in data set [5], 62.3 µM; in data set [1], 8 µM. Also, in data set [2], the inhibition turned out to be 91%.

Consider `NNC(=O)c1ccc2nc(NN)sc2c1`, for which the inhibition in data set [2] was -1%.

As to `N#CCCN(N)c1nc2ccccc2s1`, the inhibition in data set [2] was 2%.

Consider `Nc1nc2ccc([N+](=O)[O-])cc2s1`, for which the concentration for half-maximal inhibition (IC50) in data set [1] is above 500 µM.

In the case of `NNc1ccccc1` [PHENYLHYDRAZINE], the Activity entry in data set [3] is reported as “Non-toxic”. In addition, the concentration for half-maximal inhibition (IC50) in data set [4] stood at 0.2 µM; in data set [5] it was 1.3 µM; in data set [1], 0.25 µM. In addition, in data set [6], the Ratio IC50 was determined as 32.

For `Cc1ccc2nc(NN)sc2c1`, the inhibition in data set [2] was 37%.

In the case of `NNc1nc2cc(C(F)(F)F)ccc2s1`, the inhibition in data set [2] was determined as 46%.

Turning to `O=C(O)/C=N/Nc1nc2ccccc2s1`, in data set [2], the inhibition came to 13%.

The values are drawn from ChEMBL document CHEMBL3091438, “Discovery and characterisation of hydrazines as inhibitors of the immune suppressive enzyme, indoleamine 2,3-dioxygenase 1 (IDO1)” (Bioorg Med Chem, 2013).
